Source: PubChem BioAssay (NCI)
Where “and” joins values, the source holds several entries; their conditions need not be identical. Equal entries are not always repeated.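 All cell lines were grown in 96-well plates and treated with compound for 48 hours. Abbreviation: GI50, concentration required for 50% inhibition of growth. At the TGI there is no net growth.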

Experiments:
Test in all cases: NCI-60 cell line screen, 48 h
SNB-19 CNS = test system: SNB-19 CNS
PC-3 prostate = test system: PC-3 prostate
MOLT-4 leukemia = test system: MOLT-4 leukemia
BT-549 breast = test system: BT-549 breast
K-562 leukemia = test system: K-562 leukemia
SR leukemia = test system: SR leukemia
A498 renal = test system: A498 renal
NCI/ADR-RES ovarian = test system: NCI/ADR-RES ovarian
MDA-MB-435 = test system: MDA-MB-435
HT29 colon = test system: HT29 colon

| SMILES | TGI (SNB-19 CNS) | TGI (PC-3 prostate) | GI50 (MOLT-4 leukemia) | TGI (MOLT-4 leukemia) | TGI (BT-549 breast) | GI50 (K-562 leukemia) | TGI (K-562 leukemia) | GI50 (SR leukemia) [µM] | TGI (A498 renal) | TGI (NCI/ADR-RES ovarian) | TGI (MDA-MB-435) | GI50 (HT29 colon) | TGI (HT29 colon) | GI50 (SNB-19 CNS) [µM] | GI50 (PC-3 prostate) [µM] | GI50 (BT-549 breast) [µM] | TGI (SR leukemia) | GI50 (A498 renal) [µM] | GI50 (NCI/ADR-RES ovarian) [µM] | GI50 (MDA-MB-435) [µM] |
| --- | --- | --- | --- | --- | --- | --- | --- | --- | --- | --- | --- | --- | --- | --- | --- | --- | --- | --- | --- | --- |
| O=NN(CCCl)C(=O)NC1CCCCC1 | 118 µM and 194 µM | 136 µM | 20.7 µM and 36.1 µM | 38.4 µM and 99.1 µM and 80.3 µM | 81.7 µM | 10.9 µM and 36.6 µM | 43.9 µM and 228 µM and 106 µM | 9.14 | 155 µM | 186 µM | 102 µM | 36.6 µM and 64.3 µM | 139 µM and 165 µM |  |  |  |  |  |  |  |
| COc1ccc(OCC(O)CN2CCN(c3ccc(Cl)cc3)CC2)cc1 (stereo unspecified) | > 100 µM | > 100 µM | > 100 µM | > 100 µM | > 100 µM | > 100 µM | > 100 µM | > 100 | > 100 µM | > 100 µM | > 100 µM | > 100 µM | > 100 µM | 77.7 | > 100 | > 100 | > 100 µM | > 100 | > 100 | > 100 |
| CC1OC(OC2C(O[C@H]3CC[C@@]4(C)C(=CC[C@H]5[C@@H]6C[C@@H]7O[C@]8(CC[C@@H](C)CO8)[C@@H](C)[C@@H]7[C@@]6(C)CC[C@@H]54)C3)OC(CO)C(OC3OC(CO)C(O)C3O)C2O)C(O)C(O)C1O (stereo partly specified) | 1.48 µM and 1.82 µM | 1.48 µM and 1.78 µM | 0.187 µM | 1.8 µM and 0.412 µM | 1.84 µM and 2.66 µM |  | 50 µM |  | 1.62 µM and 1.98 µM | 1.79 µM and 2.44 µM | 2 µM and 1.57 µM | 1.01 µM | 1.62 µM and 2.17 µM | 0.649 | 0.533 | 1.37 | 2.25 µM | 0.733 | 1.19 | 0.434 |
| COc1ccc(/C=C\c2cc(OC)c(OC)c(OC)c2)c(NS(=O)(=O)c2ccc(C(C)(C)C)cc2)c1O | 26.6 µM | 17 µM | 0.202 µM | 3.94 µM | 5.22 µM | 0.0714 µM | > 100 µM | 0.0453 | 0.169 µM | 19.6 µM | 0.735 µM | 3.51 µM | 18.6 µM | 0.56 | 0.369 | 0.467 | > 100 µM | 0.0241 | 0.309 | 0.0427 |
| CC1=C(CNO)C2=C(C)C3(CC3)[C@@](C)(O)C(=O)C2=C1 | 25.5 µM | 19.6 µM | 3.72 µM | > 100 µM | 3.6 µM | 11.9 µM | > 100 µM | 4.49 | 3.28 µM | 7.63 µM | 39 µM | 2.34 µM | 58.8 µM | 1.81 | 1.91 | 1.24 | > 100 µM | 1.6 | 2.32 | 11.4 |
| O=C(OC[C@@H]1CO1)c1cccc2c(=O)c3ccccc3[nH]c12 | 5.51 µM | > 21.8 µM | 0.0531 µM |  | 2.86 µM | 0.24 µM | > 100 µM | 0.0604 | 3.56 µM | 2.08 µM | 1.24 µM | 0.311 µM | 3.17 µM | 0.505 | 0.381 | 0.338 |  | 1.76 | 0.253 | 0.281 |
| C=C(Cl)[C@@](Cl)(CBr)CC[C@@H](Br)C(C)(C)Cl | 1.54 µM and 1.52 µM | 1.42 µM and 1.29 µM | 17.5 µM | 58.4 µM and 63.8 µM | 22.3 µM | 1.7 µM | > 100 µM and 23.5 µM | 23.1 | 5.57 µM and 1.93 µM |  | 39.5 µM and 5.5 µM | 1.28 µM | 4.48 µM and 0.635 µM | 0.358 | 0.28 |  | > 100 µM and 79.4 µM |  | 3.05 | 2.5 |
| COc1ccc(/C=C/C(C)=N/OCC(=O)Nc2ccc(Cl)cc2)cc1 | > 60.1 µM | 13.1 µM | 2.23 µM | 9.97 µM | 14.4 µM | 2.42 µM | 17.2 µM | 2.24 | 16.6 µM | 15.3 µM | 9.76 µM | 3.87 µM | 18.2 µM | 3.16 | 1.84 | 2.71 | 10.6 µM | 2.54 | 2.9 | 2.44 |
| CCCCCCCCCCCCOC1C(C(CC(=O)N2CCN(Cc3ccc4c(c3)OCO4)CC2)NS(=O)(=O)c2cc(Cl)cc(Cl)c2)OC2OC(C)(C)OC21 (stereo unspecified) | > 100 µM | > 100 µM | 5.03 µM | > 100 µM | > 100 µM | 14.8 µM | > 100 µM | 3.85 | > 100 µM | > 100 µM | > 100 µM | 4.82 µM | 31.1 µM | 44.7 | 4.04 | 27.9 | 47.4 µM | 43.4 | > 100 | 48 |
| O=C(Oc1ccc2c(c1)CN(Cc1ccccc1)CO2)c1ccccc1 | 34.1 µM | 29.4 µM |  | 54.1 µM | 34.1 µM |  | 49.6 µM |  | 31.7 µM | 59.3 µM | 54.2 µM |  | 40.8 µM |  |  |  | 69.2 µM |  |  |  |
| Fc1ccc(-c2nn3c(COc4ccc(Cl)cc4)nnc3s2)cc1Oc1ccccc1 | > 58.5 µM | 13.6 µM | 3.51 µM | 17.7 µM | 55.3 µM | 42.1 µM | > 100 µM | > 100 | 51.8 µM | 95.5 µM | > 71.1 µM | > 47.9 µM | > 74.8 µM | 30.2 | 0.0735 | 24.8 | > 100 µM | 15.3 | 30.5 | 30.8 |
| COC(=O)[C@H](Cc1cn(C)cn1)NC(=O)[C@@H](NC(=O)Nc1cc(C(F)(F)F)cc(C(F)(F)F)c1)C(C)C | > 10 µM | > 10 µM | 3.16 µM | > 10 µM | 7.9 µM | 4.74 µM | > 10 µM | 3.08 | > 10 µM | > 10 µM | > 10 µM | 2.23 µM | 4.89 µM | 6.71 | 4.35 | 2.51 | > 10 µM | > 10 | > 10 | 6.11 |
| N#CC(NC(=O)CCl)=C(Cl)Cl | 3.17 µM | 4.22 µM |  |  | 4.1 µM | 0.595 µM | 2.71 µM | 0.702 | 3.88 µM | 16.8 µM | 4.03 µM | 1.76 µM | 3.44 µM | 1.67 | 1.69 | 1.93 | 2.68 µM | 1.86 | 2.95 | 1.94 |
| CCSc1ncc(Br)c(Sc2nc(N)nc3nc[nH]c23)n1 | > 100 µM | > 100 µM | 3.42 µM | > 100 µM | 67 µM | 3.11 µM | > 100 µM | 1.83 | > 100 µM | > 100 µM | > 100 µM | 5.74 µM | 80.3 µM | > 100 | 4.77 | 4.11 | > 100 µM | 10.1 | 3.48 | 3.72 |
| OCC#Cc1ccccc1C#Cc1ccc(C#Cc2ccccc2)cc1 | > 100 µM | 34.2 µM | 2.65 µM | 43.5 µM | > 100 µM | 3.92 µM | 26.3 µM | 11.5 | 30.8 µM | 59.1 µM | 49.5 µM | 12.7 µM | 33.5 µM | 35.9 | 15.1 | 35.6 | 44.8 µM | 15.6 | 17.6 | 21 |
| CC1=C2[C@@H](CC1)[C@]1(C)O[C@@](C3CC3)(C[C@H]1OC(=O)CO)[C@H]2OC(=O)/C=C/c1ccccc1 | 35.6 µM | 28.4 µM | 15.1 µM | 36.9 µM | 7.74 µM | 16.1 µM | 46 µM | 13.5 | 0.605 µM | 14.1 µM | 30.6 µM | 16.1 µM | 32.2 µM | 17.6 | 13 | 0.148 | 39.2 µM | 0.0998 | 0.103 | 16.1 |
| Nc1ncc(C2[C@H](CNC(=O)c3cc(Br)c[nH]3)C(CNC(=O)c3cc(Br)c[nH]3)[C@@H]2c2cnc(N)[nH]2)[nH]1 (stereo partly specified) |  | > 50 µM | 48.4 µM | > 50 µM | > 50 µM | 48.1 µM | > 50 µM | 25.1 | > 50 µM | > 50 µM | > 50 µM |  |  |  | > 50 | 6.71 | > 50 µM | > 50 | > 50 | > 50 |
| COC(=O)c1ccc2[nH]c(O)c(C(=Nc3ccc(N(C)C(=O)CN4CCN(C)CC4)cc3)c3ccccc3)c2c1 | 8.33 µM | 25.5 µM | 0.389 µM | 4.56 µM | 3.28 µM | 0.241 µM | 11.9 µM | 0.224 | 5.39 µM | 36.4 µM | 4.02 µM |  |  | 2.95 | 1.04 | 1.65 | 10.2 µM | 1.91 | 9.36 | 0.89 |
| C#Cc1cccc(NC(=O)C2CCCN(C(=O)CCl)C2)c1 (stereo unspecified) | > 82.5 µM | > 82.5 µM | 23.4 µM | 75.1 µM | > 82.5 µM | 36.6 µM | > 82.5 µM | 24.2 |  | > 82.5 µM | > 82.5 µM | > 82.5 µM | > 82.5 µM | > 82.5 | > 82.5 | 38.6 | > 82.5 µM |  | > 82.5 | 69.8 |
